Where “and” joins values, the source holds several entries; their conditions need not be identical. Equal entries are not always repeated. Marks after values point to notes of the source that are not given here. Values belong to the compound of their own block, whether it stands above or below them.
Columns and labels:
[1] = Loading of selected active agents onto stent grafts / polyurethane-coated stents; type: physicochemical; conditions: type A: stent grafts with PTFE polymer layer immersed in solution of dissolved solids
Description: Loading of Selected Active Agents onto Stent Grafts All values are stated in μg.

[2] = Active agent release from stent grafts and polymer-coated stents in PBS buffer at 37° C.; type: physicochemical; conditions: type A PTFE stent graft, PBS 37° C.
Protocol: To analyze the active agent release, a stent was incubated at 37° C. in 10 ml of PBS buffer (stabilized with Na azide) at 37° C. After defined periods of time had elapsed, 2×1 ml of the solution were removed and analyzed. These 2 ml were replaced by fresh PBS buffer (stabilized with Na azide).
The tables reflect the total released content of active agent in the solution., ie., the amounts of active agent in the buffer volume removed for the analysis are accumulated with amounts detected in subsequent examples.

[3] = tested on: neointima formation; conditions: animal experiments; cited from earlier work
[4] = tested on: neointima formation; conditions: pigs; Heldman 2001; cited from earlier work
[5] = tested on: restenosis; conditions: in vivo; cited from earlier work
[6] = tested on: smooth muscle cells (SMC); assay: Inhibition of proliferation of smooth muscle cell (SMC) cultures; type: cell-based
[7] = tested on: neointima formation and foci of inflammation; assay: Animal study: FK506-loaded ceramic-coated stents implanted into the carotid artery of rabbits; type: in vivo, New Zealand rabbits; conditions: ceramic-coated stents loaded with 60 μg of FK506; rabbit carotid artery; after 28 days
Protocol: Stainless steel coronary stents (JOSTENT Flex, 16 mm) were coated with an aluminum oxide ceramic layer. This coating served as carrier of FK506 (as described in Example 5). In this case, the stents were loaded with a total of 60 μg of FK506. In an animal study in rabbits (n=7), these FK506 coated stents and normal stents without coating were implanted into the carotid artery of New Zealand rabbits. The release of FK506 and the effect of FK506 on the growth of the intima and the formation of macrophages and lymphocytes was investigated.
The release of FK506 were determined by HPLC determination of the amount of FK506 in the blood of the rabbits after 1 hr, 8 hr, 24 hr and 48 hr. FIG. 6 is a graph showing the release of FK506 over time. The rabbits were sacrificed after 28 days, and the implanted stents were examined. The area of newly grown intima (neointima) within the stent was quantified under the optical microscope, and is reported in FIG. 7. There is a reduction of 53% in the formation of neointima for stents loaded with 60 μg of FK506 compared with bare stents. […] The use of stents with a ceramic coating onto which FK506 is applied thus leads to a distinct reduction in neointima and in foci of inflammation after the implantation.

SMILES: O=C1c2c(O)ccc(O)c2C(=O)c2c(NCCNCCO)ccc(NCCNCCO)c21 [Mitoxantrone]
amount of active agent loaded, Average [1]: 124 µg | amount of active agent loaded, single stent [1]: 116 µg and 142 µg and 113 µg

SMILES: N.N.[Cl][Pt][Cl] [Cisplatin]
amount of active agent loaded, Average [1]: 14 µg | amount of active agent loaded, single stent, measured by AAS ([1]; measured by AAS): 15* μg and 14* μg | total released content after 24 hr, single determinations ([2]; Cisplatin): 12.4 µg and 12.2 µg and 16.1 µg and 15.9 µg and 10.9 µg and 11.1 µg

total released content after 96 hr, Average ([2]; Vinblastine, after 96 hr): 136 µg | total released content after 96 hr, single determinations ([2]; Vinblastine, after 96 hr): 132 and μg and 140 μg
SMILES: CC[C@]1(O)C[C@@H]2CN(CCc3c([nH]c4ccccc34)[C@@](C(=O)OC)(c3cc4c(cc3OC)N(C)[C@H]3[C@@](O)(C(=O)OC)[C@H](OC(C)=O)[C@]5(CC)C=CCN6CC[C@]43[C@@H]65)C2)C1 [Vinblastine]

amount of active agent loaded, Average [1]: 144 µg | amount of active agent loaded, single stent [1]: 128 µg and 155 µg and 148 µg | total released content after 192 hr, Average ([2]; Paclitaxel, after 192 hr): 2.23 µg | total released content after 192 hr, single determinations ([2]; Paclitaxel, after 192 hr): 2.22 µg and 2.24 µg
SMILES: CC(=O)O[C@H]1C(=O)[C@@]2(C)[C@H]([C@H](OC(=O)c3ccccc3)[C@]3(O)C[C@H](OC(=O)[C@H](O)[C@@H](NC(=O)c4ccccc4)c4ccccc4)C(C)=C1C3(C)C)[C@]1(OC(C)=O)CO[C@@H]1C[C@@H]2O [Paclitaxel]
total released content after 8 hr, single determinations ([2]; Paclitaxel, after 8 hr): 1.16 and μg and 1.21 μg and 0.89 and 0.94 μg and 1.42 and 1.25 μg | total released content after 24 hr, single determinations ([2]; Paclitaxel): 2.44 and μg and 2.40 μg and 2.26 and 2.27 μg and 1.65 and 1.42 μg | total released content after 96 hr, single determinations ([2]; Paclitaxel, after 96 hr): 2.79 and μg and 2.78 μg and 2.82 and 2.82 μg and 1.42 and 1.93 μg | neointima formation [3]: inhibit neointima formation | duration of beneficial effect of coated stents [4]: beneficial effect has been observed to cease after 6 months

SMILES: CO[C@H]1C[C@@H]2CC[C@@H](C)[C@@](O)(O2)C(=O)C(=O)N2CCCC[C@H]2C(=O)O[C@H]([C@H](C)C[C@@H]2CC[C@@H](O)[C@H](OC)C2)CC(=O)[C@H](C)/C=C(\C)[C@@H](O)[C@@H](OC)C(=O)[C@H](C)C[C@H](C)/C=C/C=C/C=C/1C [rapamycin]
healing of vessel wall injury caused by balloon angioplasty and stent implantation [5]: delays healing of vessel wall injury

SMILES: C=CC[C@@H]1/C=C(\C)C[C@H](C)C[C@H](OC)[C@H]2O[C@@](O)(C(=O)C(=O)N3CCCC[C@H]3C(=O)O[C@H](/C(C)=C/[C@@H]3CC[C@@H](O)[C@H](OC)C3)[C@H](C)[C@@H](O)CC1=O)[C@H](C)C[C@@H]2OC (relative stereo) [FK 506, [3S-[3R* [E(1S*, 3S*, 4S*)], 4S*, 5R*,-8S*, 9E, 12R*, 14R*, 15S*, 16R*, 18S*, 19S*, 26aR*]]-5,6,8,11,12, 13, 14, 15, 16, 17, 18, 19, 24, 25, 25, 26, 26a-hexadecahydro-5,19-dihydroxy-3-[2-(4-hydroxy-3-methoxycyclohexyl)-1-methylethenyl]-14,16-dimethoxy-4,10,12,18-tetramethyl-8-(2-propenyl)-15,19-epoxy-3H-pyrido[2,1-c] [1,4]oxaazacyclotricosine-1,7-20,21(4H,23H)-tetrone]
concentrations with inhibitory effect on SMC proliferation [6]: 300 to 500 nM | reduction in the formation of neointima compared with bare stents [7]: 53%

— US8187320B2, “Medical implants containing FK506 (tacrolimus)” (Abbott Laboratories Vascular Enterprises Limited, priority 2001, dated 2012)
